{"source": "patent US20110269130A1", "about": "“Antibiotice Susceptibility Profiling Methods” (priority 2008, published 2011)", "key": {"[1]": {"system": "S. aureus ATCC 29213 (wild type)", "assay": "PNA-FISH antibiotic susceptibility test, wild type S. aureus", "assay_type": "cell-based", "settings": "OX 2 μg/mL and higher (2, 4, 8 μg), 6 hr incubation in Phoenix AST broth, 10^5 CFU/ml, PNA-FISH fluorescence imaging", "procedure": "(§1) S. aureus ATCC 29213 and S. aureus POS 3663 cultures with a concentration of 10^5CFU/ml were divided into six 400 μl subsamples and incubated with or without OX antibiotic for 0 or 6 hours in Phoenix AST broth as indicated in the following table.\n(§2) Each subsample was placed into separate 1.5 mL microcentrifuge tubes following incubation. The tubes were centrifuged at 5000 rpm for 3 minutes and the supernatants were discarded. The bacteria were resuspended in […] of 80% ethanol and incubated for 5 minutes at room temperature and then centrifuged at 5000 rpm for 3 minutes. The supernatants were discarded and the bacteria were resuspended in one drop (approximately 25 μL) of the S. aureus-specific PNA-probe solution from the PNA FISH Kit and incubated for 1.5 hours at 55° C. After hybridization, 500 μL of the washing solution from the PNA FISH Kit was added and the tubes were incubated at 55° C. for 30 minutes. The tubes were centrifuged 10,000 rpm for 3 minutes and the supernatants were discarded. The bacterial pellets were resuspended in 150 μL PBS, and 40 μL of each subsample was transferred onto a 0.2 μm pore-size polycarbonate membrane using a flow-through device. The membrane was then transferred to a glass slide and covered with a cover slip. The membrane was then imaged using a fluorescence microscope."}, "[2]": {"system": "S. aureus POS 3663 (MRSA)", "assay": "PNA-FISH antibiotic susceptibility test, MRSA", "assay_type": "cell-based", "settings": "OX at concentrations as high as 8 μg/mL, 6 hr incubation in Phoenix AST broth, 10^5 CFU/ml, PNA-FISH fluorescence imaging", "procedure": "as §1, §2"}}, "data": [{"smiles": "Cc1onc(-c2ccccc2)c1C(=O)N[C@@H]1C(=O)N2[C@@H]1SC(C)(C)[C@@H]2C(=O)O", "note": "[oxacillin]", "values": [{"measurement": "effect of oxacillin (OX) on the growth of wild type S. aureus ATCC 29213", "setting": "[1]", "result": "killed the bacteria"}, {"measurement": "effect of oxacillin (OX) on the growth of wild type S. aureus ATCC 29213", "setting": "[1]; listed as OX", "result": "most of the wild type S. aureus were killed"}, {"measurement": "effect of oxacillin (OX) on the growth of resistant S. aureus POS 3663", "setting": "[2]", "result": "had no effect on the growth"}, {"measurement": "effect of oxacillin (OX) on the growth of resistant S. aureus POS 3663", "setting": "[2]; listed as OX", "result": "continues to grow"}]}]}
